Earlier results as cited in patent publication US20260137744A1, “MELATONIN-ENRICHED COMPOSITION OF PISTACIA VERA (PISTACHIO) AND A METHOD OF PREPARATION THEREOF” (Network Nutrition Pty Limited, priority 2024, published 2026).

- peak concentration in the bloodstream, time after oral dosage (after oral dosage): approximately 50 minutes
- bioavailability (oral melatonin, average, varies significantly among individuals): around 15%
SMILES: COc1ccc2[nH]cc(CCNC(C)=O)c2c1 [melatonin]
